1 substance from patent US12370235B2, “Synthetic, non-natural antimicrobial peptides inspired by Staphylococcus auricularis delta toxin” (University of Saskatchewan, priority 2021, dated 2025) can be followed below.

Usually MIC stands for the least concentration at which growth counts as inhibited.

The test system of series [1] is S. aureus ATCC 29213. Put plainly: MIC, broth dilution. The class given is cell-based, Staphylococcus aureus. The settings on record: Table 5; STIP3 variants, highest concentration 100 μg/mL. A digest of the protocol: (§1)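 Peptides of 95% purity tested as 2-fold dilution series against bacteria diluted to OD 6×10^−4 in cation-adjusted Mueller Hinton broth. Standing cultures incubated overnight at 37° C; MIC is the lowest concentration with no visible growth.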

In series [2] the test system is S. aureus ATCC 33592 (MRSA SCCmec type III). The series can be described thus: MIC, broth dilution. The class given is cell-based, Staphylococcus aureus. The settings on record: Table 5; STIP3 variants, highest concentration 100 μg/mL. Summed up:
as §1
(In broth dilution the organism is exposed to a series of concentrations in liquid medium.)

Series [3] has as its system S. aureus ATCC BAA-1683 (MRSA SCCmec type IV). The series can be described thus: MIC, broth dilution. The class given is cell-based, Staphylococcus aureus. The conditions noted are these: Table 5; STIP3 variants, highest concentration 100 μg/mL. Summed up: as §1
The test system of series [4] is S. aureus ATCC BAA-2094 (MRSA SCCmec type V). The series can be described thus: MIC, broth dilution. The conditions noted are these: Table 5; STIP3 variants, highest concentration 100 μg/mL. The class given is cell-based, Staphylococcus aureus. Summed up:
as §1

Series [5] relates to S. aureus ATCC BAA-2313 (MRSA SCCmec type XI). Put plainly: MIC, broth dilution. The class given is cell-based, Staphylococcus aureus. The conditions noted are these: Table 5; STIP3 variants, highest concentration 100 μg/mL. Summed up: as §1
For series [6], the system named is S. aureus ATCC BAA-41 (MRSA SCCmec type II). Put plainly: MIC, broth dilution. The class given is cell-based, Staphylococcus aureus. The conditions noted are these: Table 5; STIP3 variants, highest concentration 100 μg/mL. A digest of the protocol:
as §1

Series [7] concerns S. aureus ATCC BAA-42 (MRSA SCCmec type VI). Put plainly: MIC, broth dilution. The settings on record: Table 5; STIP3 variants, highest concentration 100 μg/mL. The class given is cell-based, Staphylococcus aureus. Summed up:
as §1

In series [8] the test system is S. aureus ATCC BAA-44 (MRSA SCCmec type I). The series can be described thus: MIC, broth dilution. The class given is cell-based, Staphylococcus aureus. The conditions noted are these: Table 5; STIP3 variants, highest concentration 100 μg/mL. A digest of the protocol: as §1
Series [9] relates to S. aureus bovid isolate (RDM-1). Put plainly: MIC, broth dilution. The class given is cell-based, Staphylococcus aureus. The settings on record: clinical isolate. A digest of the protocol:
as §1

Series [10] has as its system Mannheimia haemolytica ATCC 33393. The series can be described thus: MIC, broth dilution. The class given is cell-based. The settings on record: Table 11; highest concentration 25 μg/mL. Summed up:
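Read-out is the lowest peptide concentration showing no growth after an overnight standing culture at 37 °C. Two-fold serial dilutions of 95%-pure peptide were tested against M. haemolytica ATCC 33393 at OD 6×10^−4 in cation-adjusted MH broth.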

Series [11] relates to panel of 7 MRSA strains. The class given is cell-based, Staphylococcus aureus. The method, then:
The antibiotic effect of STIP3-29 was bactericidal (FIG. 3). […] Some proportion of bacterial cells escaped treatment, remaining dormant. Indeed, strain-dependent persister cells, capable of escaping a variety of therapeutic agents, have been described for S. aureus^47.
Measurement of bactericidal activity. […] For S. aureus, an overnight culture was diluted to an OD of 5×10^−7 in 2 ml of MH broth supplemented with the appropriate concentration of peptide. Sterile water was added to control cultures. Standing cultures were incubated at 37° C. and 100 μl volume aliquots were removed at 60 min time intervals for 8 h. These aliquots were plated on agar plates to measure the colony forming units (CFUs) that remained viable upon treatment. Control aliquots from the same time intervals were diluted before plating to accurately enumerate increasing CFU counts. Counts were performed from plates that were incubated at 37° C. overnight. A plot of CFU/ml against time was used to illustrate and evaluate the time dependent killing. The same procedure was followed for C. albicans except that YPD broth and a cultivation temperature of 30° C. was employed.

Series [12] concerns Klebsiella pneumoniae. Put plainly: SYTOX Green membrane integrity assay. The class given is cell-based. The settings on record: 25 μg/mL; resistant strain.
Series [13] concerns 3D EpiDerm skin tissues. Put plainly: Peptide cytotoxicity, 3D EpiDerm skin tissues, alamarBlue. The class given is cell-based, human. The settings on record: 250 μg/mL, 24 h. The method, then: (§2) Peptide cytotoxicity. In vitro cytotoxicity was measured using the 3D EpiDerm skin tissues and HeLa Cells using a fluorescent reporter of cell viability, alamarBlue (ThermoFisher Scientific). 3D EpiDerm skin tissues (MatTek EPI-200-AFAB) were transferred to a 12 well plate containing 600 μL of AFAB-assay medium supplemented with 10% v/v alamarBlue. […] HeLa cells were seeded in a 96-well plate (2×10^4 cells/per well) and incubated overnight at 37° C. and 5% CO2 in a humidified incubator to prepare wells at ˜50% confluency of adherent cells. After the incubation, spent DMEM was removed and cells were washed with PBS. alamarBlue-containing medium was prepared by mixing Phenol Red-free DMEM with alamarBlue solution at a 9:1 ratio and a 180 μl volume was added to each well. Cells were treated with peptides varying from 3.25 to 200 μg/mL and then incubated for 24 h. The fluorescence intensities of treated cultures were normalized to values measured for an untreated control group. After the 24 h incubation period, alamarBlue fluorescence was measured at 590 nm upon excitation at 560 nm using Varioskan Lux plate reader (Thermo Scientific) plate reader.
A general note: Alamar Blue is a resazurin reagent that responds to reducing activity.

Series [14] has as its system HeLa cells. The class given is cell-based. The conditions noted are these: 24 h, alamarBlue. The method, then: as §2

Ends that are not written are not given here.

Regarding “TVGGLVKWILKTVKKFA-NH2 [STIP3-29, TVGGLVKWILKTVKKFA-NH2]”, in series [1], the “MIC S. aureus ATCC 29213” value was determined as 12.5 µg/mL. Moreover, the “MIC S. aureus ATCC 33592 (III)” value in series [2] worked out at 6.25 µg/mL. For the same substance, the “MIC S. aureus ATCC BAA 1683 (IV)” value in series [3] was found to be 6.25 µg/mL. For the same substance, the “MIC S. aureus ATCC BAA 2094 (V)” value in series [4] was 6.25 µg/mL. The “MIC S. aureus ATCC BAA 2313 (XI)” value in series [5] came out at 6.25 µg/mL. For the same substance, the “MIC S. aureus ATCC BAA 41 (II)” value in series [6] was determined as 6.25 µg/mL. In addition, the “MIC S. aureus ATCC BAA 42 (VI)” value in [7] stood at 6.25 µg/mL. Also, in series [8], the “MIC S. aureus ATCC BAA 44 (I)” value turned out to be 6.25 µg/mL. The minimum inhibitory concentration (MIC) in series [9] stood at 6.25 µg/mL. Moreover, in series [10], the “MIC (μg/mL) M. haemolytica” value came to 25 µg/mL. Also, the treated bacteria killed in [11] (12.5 μg/mL (2-fold MIC), within the first 4 hours, panel of 7 MRSA strains) is ~99%. The antibiotic effect result in [11] (in words) is “bactericidal”. Moreover, the SYTOX entry entry in series [12] is recorded as “SYTOX was slow to enter”. The “indirect measure of tissue health (alamarBlue)” value in [13] is “appeared to be unaffected”. Also, the “IC50, HeLa cell survival” value in series [14] is 56 ± 1 µg/mL.
